Data: the METLIN SMRT retention time set (Domingo-Almenara et al. 2019)

Test: gradient 5% acetonitrile 3 min, to 50% in 2 min, to 85% in 15 min, held 3 min, 100 µL/min
Conditions: column: Zorbax Extend-C18 2.1 x 50 mm; eluents: water / acetonitrile, 0.1% formic acid
How it was run: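 Retention time was recorded from adduct peaks, which were picked computationally and each inspected manually. Pure standards ran in mixtures of ~100 molecules on HPLC coupled to a quadrupole time-of-flight mass spectrometer, in positive and negative ionization mode, through a Zorbax Extend-C18 column (2.1 × 50 mm, 1.8 μm) at 100 μL/min. Eluents were water and acetonitrile, each with 0.1% formic acid.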

RP-LC retention time [s]	SMILES
1110	Cc1ccc(N2C(=O)C3N=NN(Cc4nc(-c5ccc(OC(C)C)cc5)no4)C3C2=O)cc1 (stereo not drawn)
560	CN(CCCNC(=O)C1CCc2nc(N3CCCC3)ncc2C1)c1ccccc1 (stereo not drawn)
646	O=C(Cn1nc2c(cc1=O)CCCCC2)Nc1nc(-c2cccnc2)cs1
650	Cn1c(CC2CCN(S(=O)(=O)Cc3ccc(F)cc3Cl)C2)nc2cccnc21 (stereo not drawn)
919	Cc1ccc(-c2nc(C)cc(OCC(=O)NCc3ccc4c(c3)OCO4)n2)cc1
809	Cc1ccc(NC(=O)N2CCCC2c2c(C)noc2C)cc1F (stereo not drawn)
880	O=C(CN1C(=O)CCCc2cc(S(=O)(=O)N3CCCCC3)ccc21)NC1CCCCC1
648	Cc1cccc(C(=O)NC(C)C(=O)Nc2nc3ccccc3[nH]2)c1 (stereo not drawn)
849	Cc1ccc2nc(NC(=O)C3CCN(S(=O)(=O)c4cn(C(C)C)cn4)CC3)sc2c1
808	O=c1n(Cc2ccc(Cl)cc2)nc2c(S(=O)(=O)N3CCOCC3)cccn12
732	Cc1cc(N2CCN(c3ccccn3)CC2)n2ncc(-c3ccc(F)cc3)c2n1
1090	FC(F)(F)c1cccc(Nc2c(-c3ccc(Cl)cc3)nc3cnccn23)c1
1060	COc1ccc(NC(=O)c2cc(C)n3nc(-c4ccco4)cc3n2)cc1F
726	COCCCNC(=O)c1cc(-c2ccc(F)cc2)c[nH]1
705	CCOC(=O)c1noc2ncnc(NCC3CCN(Cc4cccc(F)c4)CC3)c12
673	COc1cc(O)ccc1-c1nc2cc(C)ccn2c1Nc1ccccc1C
1250	COc1ccccc1-c1csc(NC(=O)c2sc(-c3ccccc3)nc2C)n1
1070	CCOc1ccc(-c2nn3c(Cc4ccc(OC)cc4)nnc3s2)cc1
868	O=C(C1CCCN(c2nn3c(=O)c4c(nc3s2)CCCC4)C1)N1CCN(c2ccccc2F)CC1 (stereo not drawn)
787	Cc1ccc(-c2cc(C(=O)N3CCC(NC(=O)c4ccc5c(c4)OCO5)CC3)[nH]n2)c(C)c1
809	Cc1ccc(CNC(=O)C2(C)Cn3nc(C)cc3C(=O)N2c2ccc3c(c2)OCCO3)cc1 (stereo not drawn)

RP-LC retention time [s]	SMILES
642	Cc1nc(C)c(-c2ccc(=O)n(CCNS(=O)(=O)c3ccc4c(c3)OCCO4)n2)s1
817	O=C(COc1ccccc1)N1CCC(OCc2nc(C3CC3)no2)CC1
923	CC1Cc2ccccc2N1C(=O)CCn1c(=O)sc2ccccc21 (stereo not drawn)
664	CCN(CC)CCNC(=O)C1CCCN(c2ccc(Sc3ccc(Br)cc3)nn2)C1 (stereo not drawn)
733	CCOc1ccc(CC(=O)NC2CCN(c3cc(-c4cccs4)[nH]n3)C2)cc1 (stereo not drawn)
990	Cc1cc(C)cc(NC(=O)CSc2cc(N3CCCCC3)ncn2)c1
669	CCOC(=O)c1ccc(Nc2c(C(=O)N3CCCC(C)C3)cnc3nc(C)ccc23)cc1 (stereo not drawn)
982	Cc1sc(-c2cc(C(F)(F)F)on2)cc1S(=O)(=O)NCc1ccc(N(C)C)cc1
848	COc1ccc(S(=O)(=O)N2CCN(c3cc(C)nc(NC4CCCCC4)n3)CC2)cc1C
660	CCC(C)NC(=O)c1cc(C)n(C)n1 (stereo not drawn)
699	COc1ccc2c(c1)C=C(C(=O)Nc1ccc(OC)cc1OC)C=CO2
553	O=c1[nH]c2cc(Br)cnc2[nH]c1=O
798	COc1ccc(-c2nc3cnccn3c2Nc2ccc(C(=O)NC3CCCCC3)cc2)cc1
823	O=C(O)c1cnn2c(C(F)(F)F)cc(-c3ccc(F)cc3)nc12
650	CCOC(=O)C(=O)Nc1ccc(OC)c(OC)c1
846	CCCn1cc(C2=CCN(C(=O)Nc3ccc4c(c3)OCCO4)CC2)c2cccnc21
778	Cn1cc(SCC(=O)NCc2ccco2)c2ccccc21
627	CC1=C(C(=O)NCCCN2CCN(Cc3ccccc3)CC2)C2(CCCCC2)OC1=O
847	O=C(NCc1ccc2c(c1)OCO2)c1ccc2c(c1)CC(=O)N2Cc1ccc(F)cc1
661	O=C(Nc1ccc(Cn2cncn2)cc1)c1cccs1
573	CN1C(=O)c2cccn2CC1CNC(=O)c1nccn1C (stereo not drawn)

RP-LC retention time [s]	SMILES
626	CCN(CC)C(=O)NCCc1noc(COC)n1
894	CC(C)CC(C(=O)N1CCOCC1)N1CC2=C(C1=O)C(c1ccccc1Cl)NC(=O)N2C (stereo not drawn)
806	Cc1ccc(CNC(=O)C2(C)Oc3cccnc3N(C)C2=O)cc1 (stereo not drawn)
786	COc1cc(Cl)ccc1-c1nc(-c2ccc3c(c2)ncn3CCC(=O)N2CCCC2)no1
920	O=C(c1ccc(F)c(F)c1)N1CCC2(CC1)N=C(c1ccc(Cl)cc1)NO2
1200	CCOc1ccc(C2Cn3nnc(-c4nc(-c5ccccc5)no4)c3CO2)cc1 (stereo not drawn)
1040	CCN1C(=O)COc2ccc(-c3nc(NC(=O)CCc4ccccc4)sc3C)cc21
1140	O=C(O)c1cc2ccccc2cc1Nc1ccccc1
790	CCn1ccc(C(=O)N2CCCN(C3=NS(=O)(=O)C(c4ccc(C)cc4)=C3C)CC2)n1
690	COCCN1CC2(CCCC2)N(Cc2ccc(C(C)C)cc2)CC1=O
689	O=C(c1csc(-c2ccnc(N3CCOCC3)c2)n1)N1CCCCCC1
770	Cc1cc(C)cc(NC(=O)C2CC(=O)N(c3n[nH]c4cccc(F)c34)C2)c1 (stereo not drawn)
1130	O=C(Nc1ccc(Nc2ccccc2)cc1)Nc1ccccc1Cl
705	O=C(Cn1cnc2nc(N3CCCC(C(=O)NC4CC4)C3)sc2c1=O)Nc1ccc(F)c(F)c1 (stereo not drawn)
688	COCCCNC(=O)CCCn1c2ccccc2c2cnn(C)c(=O)c21
1160	COc1ccccc1-n1nnc(C(=O)OCc2nc(-c3cccc(Cl)c3)oc2C)c1C
799	Cc1oc(-c2ccc(NC(=O)C3CCC3)cc2)nc1Cn1cccn1
736	O=C(NCc1noc(-c2ccco2)n1)c1coc(C2CC2)n1
899	Cc1cc(NC(=O)C2CCCN(c3ccc(=O)n(-c4ccc(F)cc4)n3)C2)ccc1Br (stereo not drawn)
718	C=CCN1C(=O)C(C(=O)N2CCOCC2)C2CC1(C)Oc1ccccc12 (stereo not drawn)
597	CS(=O)(=O)N1C[C@H]2CCN(Cc3ccc(F)cc3Cl)C[C@H]21

RP-LC retention time [s]	SMILES
617	COc1ccc(N2CCN(C(=O)c3cn(-c4ccc(NC(C)=O)cn4)cn3)CC2)cc1
885	O=C(Nc1ccc2c(c1)OCO2)c1cn(-c2ccc(F)cc2)nn1
1010	CSc1ncccc1C(=O)Nc1cccc(OCc2nnc(-c3ccc(Cl)cc3)o2)c1
930	O=C1[C@H]2CN(Cc3ccccc3Cl)C[C@H]2C(=O)N1Cc1ccc2c(c1)OCO2
958	Cc1ccc(NC(=O)Cn2nc(N(C)C)c3ccccc3c2=O)cc1Cl
746	COc1ccc(CNC(=O)Cn2c(=O)cc(-c3nc(C)no3)c3ccccc32)cc1OC
894	Cc1ccc(NC(=O)Cn2nc3c(Oc4cccc(F)c4)nccn3c2=O)cc1F
1190	COc1ccc(OC)c(-c2csc(Nc3ccc(Br)cn3)n2)c1
799	Cc1cc(=O)n(CC(=O)N2CCN(c3ccc(F)cc3)CC2)c(N2CCc3ccccc3C2)n1
576	COC(=O)c1ccc(C(=O)NCCN2CCN(c3ccc(F)cc3)CC2)cc1
877	Fc1ccccc1-c1noc(-c2nc(-c3cnccn3)no2)n1
1010	O=C(CCc1nc(-c2ccc(N3CCCC3)cc2)no1)Nc1ccc2c(c1)OCCO2
868	CCOC(=O)c1[nH]c(C)c(CCC(=O)N2CCCC(C(=O)NC3CCCCCC3)C2)c1C (stereo not drawn)
661	Cc1nnc(NC(=O)C2CCN(C(=O)c3cccc(F)c3)CC2)s1
1020	COc1cccc(-c2noc(C3CCCN3C(=O)Nc3cc(C)ccc3C)n2)c1 (stereo not drawn)
955	CCCCS(=O)(=O)c1cc2c(cc1NC(=O)c1ccc(C)cc1)n(C)c(=O)n2C
875	Cc1ccc(-n2nc(N3CCCC(C(=O)NCc4ccc5c(c4)OCO5)C3)ccc2=O)cc1Cl (stereo not drawn)
887	COc1cccc(CN2N=C(C(=O)N3CCOCC3)S(=O)(=O)c3ccc(Cl)cc32)c1
613	Cn1ccc(C(=O)Nc2ccc(S(C)(=O)=O)cc2)n1
861	Cc1ccc(-c2cn3c(CC(=O)Nc4ccc(F)cc4F)csc3n2)cc1C
939	CCCn1cc(CCNS(=O)(=O)c2ccc(C)c(Cl)c2)c2cccnc21

SMILES	RP-LC retention time [s]
CC(C)CC(=O)Nc1ccc(-n2cnc(C(=O)N3CCC4(CC3)OCCO4)c2)nc1	677
O=C(CCc1nc(C2=CCN(Cc3ccc(Cl)cc3)CC2)no1)NC1CC1	890
Cc1ccccc1-n1c(Cn2cnc3c(N)ncnc32)nc2cccc(C)c2c1=O	719
Cc1cnc(C(=O)N2[C@H]3CC[C@@H]2c2cnc(-c4ccc(F)cc4)nc2C3)cn1	874
